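The compound was tested at five concentrations on cells cultured in 96-well plates, with a 48-hour exposure period. GI50 = concentration required for 50% inhibition of growth.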 The source made the active and inactive calls. Cut-off read from the data, not from the text of the source: active = GI50 up to about 1.1 µM and inactive = higher.
Tests used:
Assay in all cases: NCI-60 cell line screen, 48 h
MCF7 = tested on: MCF7
SK-OV-3 = tested on: SK-OV-3
OVCAR-4 = tested on: OVCAR-4
NCI-H522 = tested on: NCI-H522
RXF 393 = tested on: RXF 393
SN12C = tested on: SN12C
U-251 = tested on: U-251
UACC-62 = tested on: UACC-62
RPMI-8226 = tested on: RPMI-8226
PC-3 = tested on: PC-3
SF-268 = tested on: SF-268
HL-60 = tested on: HL-60
EKVX = tested on: EKVX
MDA-MB-435 = tested on: MDA-MB-435
A498 = tested on: A498
KM12 = tested on: KM12
MDA-N = tested on: MDA-N
SNB-19 = tested on: SNB-19
HOP-92 = tested on: HOP-92
SR = tested on: SR

| Compound | GI50 (MCF7) | GI50 (SK-OV-3) | GI50 (OVCAR-4) | GI50 (NCI-H522) | GI50 (RXF 393) | GI50 (SN12C) | GI50 (U-251) | GI50 (UACC-62) | GI50 (RPMI-8226) | GI50 (PC-3) | GI50 (SF-268) | GI50 (HL-60) | GI50 (EKVX) | GI50 (MDA-MB-435) | GI50 (A498) | GI50 (KM12) | GI50 (MDA-N) | GI50 (SNB-19) | GI50 (HOP-92) | GI50 (SR) |
| --- | --- | --- | --- | --- | --- | --- | --- | --- | --- | --- | --- | --- | --- | --- | --- | --- | --- | --- | --- | --- |
| Cn1c(=O)c2c(O)cc(N)nc2n(C)c1=O | > 100 µM (inactive) | > 100 µM (inactive) | > 100 µM (inactive) | > 100 µM (inactive) | > 100 µM (inactive) | > 100 µM (inactive) | > 100 µM (inactive) | > 100 µM (inactive) | > 100 µM (inactive) | > 100 µM (inactive) | > 100 µM (inactive) | > 100 µM (inactive) | > 100 µM (inactive) | > 100 µM (inactive) | > 100 µM (inactive) | > 100 µM (inactive) | > 100 µM (inactive) | > 100 µM (inactive) | 67.3 µM (inactive) | – |
| S=C(Nc1ccc(Cl)cc1)SC1CCCCC1 | 19 µM (inactive) | 27.8 µM (inactive) | 33.9 µM (inactive) | 19.7 µM (inactive) | 25.1 µM (inactive) | 19.2 µM (inactive) | 32.4 µM (inactive) | 14 µM (inactive) | 40.1 µM (inactive) | 35.7 µM (inactive) | 27 µM (inactive) | – | 20.8 µM (inactive) | 29.9 µM (inactive) | – | 28 µM (inactive) | 22.8 µM (inactive) | 20.8 µM (inactive) | 23.5 µM (inactive) | 32.6 µM (inactive) |
| CC1CCc2sc3nc(S)n(-c4ccccc4)c(=O)c3c2C1 (stereo unspecified) | 39 µM (inactive) | 55.1 µM (inactive) | 39.7 µM (inactive) | > 100 µM (inactive) | 35.8 µM (inactive) | > 100 µM (inactive) | 49.2 µM (inactive) | 31.3 µM (inactive) | 53 µM (inactive) | 33.3 µM (inactive) | 85.7 µM (inactive) | – | > 100 µM (inactive) | > 100 µM (inactive) | – | 75.2 µM (inactive) | > 100 µM (inactive) | 45.5 µM (inactive) | 37.7 µM (inactive) | 33.4 µM (inactive) |
| CCN1CC(C)Cn2c(=O)[nH]c3cc(Br)cc1c32 (stereo unspecified) | 17.3 µM (inactive) | 27.7 µM (inactive) | 12.1 µM (inactive) | – | 6.9 µM (inactive) | 44.7 µM (inactive) | 24 µM (inactive) | 6.97 µM (inactive) | 1.79 µM (inactive) | 30.9 µM (inactive) | 10.9 µM (inactive) | 7.19 µM (inactive) | 3.3 µM (inactive) | 2.75 µM (inactive) | 16.9 µM (inactive) | 22.9 µM (inactive) | 4.81 µM (inactive) | 26.4 µM (inactive) | – | – |
| N=C(N)NS(=O)(=O)c1ccc(Nc2c3ccccc3nc3c(C(=O)NNCCO)cccc23)cc1 | 0.109 µM (active) | > 1 µM (active) | 0.295 µM (active) | 0.127 µM (active) | 0.186 µM (active) | 0.282 µM (active) | 0.139 µM (active) | 0.27 µM (active) | 0.137 µM (active) | 0.303 µM (active) | 0.141 µM (active) | 0.227 µM (active) | 0.361 µM (active) | 0.0585 µM (active) | > 1 µM (active) | 0.141 µM (active) | 0.136 µM (active) | 0.276 µM (active) | 0.284 µM (active) | – |
| CC(C)OC1OC(CO)C(O)CC1n1cc(F)c(=O)[nH]c1=O (stereo unspecified) | 46 µM (inactive) | – | > 100 µM (inactive) | 16.2 µM (inactive) | 47.5 µM (inactive) | > 100 µM (inactive) | 66.8 µM (inactive) | > 100 µM (inactive) | 39.4 µM (inactive) | > 100 µM (inactive) | 59.3 µM (inactive) | – | > 100 µM (inactive) | > 100 µM (inactive) | > 100 µM (inactive) | > 100 µM (inactive) | > 100 µM (inactive) | > 100 µM (inactive) | > 100 µM (inactive) | – |
| CC(=O)Oc1c(N2CCCCC2)c(C(=O)c2ccccc2)c(O)c2ccn(N(C)C)c12 | 10.5 µM (inactive) | 20.8 µM (inactive) | 24.5 µM (inactive) | – | 20.7 µM (inactive) | 18.5 µM (inactive) | 16.7 µM (inactive) | 15 µM (inactive) | 7.01 µM (inactive) | 10.9 µM (inactive) | 21.9 µM (inactive) | 6.38 µM (inactive) | 16.1 µM (inactive) | 19.7 µM (inactive) | 15.3 µM (inactive) | 10.9 µM (inactive) | 17.9 µM (inactive) | 25.4 µM (inactive) | 23.9 µM (inactive) | – |

— ChEMBL document CHEMBL1201862, “PubChem BioAssay data set” (2004)
